# Measurements: ChEMBL document CHEMBL4483862, “Open-source discovery of chemical leads for next-generation chemoprotective antimalarials” (2018)
# pIC50: −log10 of the molar value.
# Test system: Plasmodium berghei
# Test: Luciferase/luciferin-expressing antifolate-resistant parasites were used to infect a culture of HepG2 cells that were pre-incubated with compounds. Infected hepatocytes emit light due to the luciferase reaction. Assay results are presented as the percent inhibition of light emission compared to control. […]
# Assay type: functional
# Conditions: sporozoite; for IC90: read-out: LUCIFERASE INFECTION ASSAY - IC90
# [1] = read-out: LUCIFERASE INFECTION ASSAY - IC50
Structure (SMILES),IC90 [µM],further results
OCCNc1nc(-c2cccnc2)nc2scc(-c3ccccc3)c12,> 10,"pIC50 (PBLUC_HILL_SLOPE 15.6, PBLUC_R_SQUARED 0.267, read-out: LUCIFERASE INFECTION ASSAY - IC50): 5.02"
CC(=O)c1cccc(NC(=O)Nc2ccc3nc(-c4cccc(C(F)(F)F)c4)nn3c2)c1,9.17,"pIC50 (HEPG2TOX_HILL_SLOPE 8.68, HEPG2TOX_R_SQUARED 0.208, PBLUC_HILL_SLOPE 3.77, PBLUC_R_SQUARED 0.543, read-out: LUCIFERASE INFECTION ASSAY - IC50): 5.29"
O=S(=O)(Nc1cc(F)c(Br)cc1F)c1cc(C(F)(F)F)cc(C(F)(F)F)c1,> 6.82,"pIC50 (HEPG2TOX_HILL_SLOPE 2.19, HEPG2TOX_R_SQUARED 0.933, PBLUC_HILL_SLOPE 2.47, PBLUC_R_SQUARED 0.245, read-out: LUCIFERASE INFECTION ASSAY - IC50): 5.53"
Cn1c(-c2ccccc2)nc2cnc(Nc3cccc(OC(F)(F)F)c3)cc21,2.38,"pIC50 (HEPG2TOX_HILL_SLOPE 2.98, HEPG2TOX_R_SQUARED 0.826, PBLUC_HILL_SLOPE 1.94, PBLUC_R_SQUARED 0.665, read-out: LUCIFERASE INFECTION ASSAY - IC50): 6.12"
Cc1nn(CC(C)C)c(Cl)c1C(=O)Nc1nc(-c2ccccn2)cs1,3.35,"pIC50 (HEPG2TOX_HILL_SLOPE 0.847, HEPG2TOX_R_SQUARED 0.93, PBLUC_HILL_SLOPE 12, PBLUC_R_SQUARED 0.706, read-out: LUCIFERASE INFECTION ASSAY - IC50): 5.55"
O=c1c(Cl)c(Cl)cnn1-c1cnc2ccccc2n1,> 11.3,"pIC50 (FFLUC_HILL_SLOPE 1.37, FFLUC_R_SQUARED 0.431, HEPG2TOX_HILL_SLOPE 2.28, HEPG2TOX_R_SQUARED 0.959, PBLUC_HILL_SLOPE 0.482, PBLUC_R_SQUARED 0.686, read-out: LUCIFERASE INFECTION ASSAY - IC50): 6.83"
CCc1cc2c(Sc3nnc(N)s3)ncnc2s1,> 11.2,pIC50 [1]: < 4.95
CC(C)(O)C#Cc1ccc(/C=N/Nc2cccc(C(F)(F)F)n2)cc1,6.05,"pIC50 (PBLUC_HILL_SLOPE 6.25, PBLUC_R_SQUARED 0.631, read-out: LUCIFERASE INFECTION ASSAY - IC50): 5.37"
O=C(OCc1ccccc1)C1=C2Sc3ccccc3N2C(=O)NC1(c1ccccc1)C(F)(F)F (stereo unspecified),> 10,"pIC50 (FFLUC_HILL_SLOPE 11.9, FFLUC_R_SQUARED 0.439, PBLUC_HILL_SLOPE 2.55, PBLUC_R_SQUARED 0.528, read-out: LUCIFERASE INFECTION ASSAY - IC50): 5.17"
Cc1oc(-c2ccc(Cl)cc2)cc1C(=O)Nc1cc(-c2cc(C(C)(C)C)oc2C)nn1-c1cc(C(F)(F)F)cc(C(F)(F)F)c1,> 5.08,"pIC50 (PBLUC_HILL_SLOPE 1.26, PBLUC_R_SQUARED 0.137, read-out: LUCIFERASE INFECTION ASSAY - IC50): < 5.29"
COc1ccc(NCC2(c3ccnc(-c4ccccc4Cl)c3)CC2)cc1OC,9.12,"pIC50 (HEPG2TOX_HILL_SLOPE 3.27, HEPG2TOX_R_SQUARED 0.816, PBLUC_HILL_SLOPE 4.33, PBLUC_R_SQUARED 0.443, read-out: LUCIFERASE INFECTION ASSAY - IC50): 5.26"
CN(C)C(=O)Oc1ccc2c(-c3ccccc3)cc(=O)oc2c1,> 10.7,"pIC50 (PBLUC_HILL_SLOPE 7.62, PBLUC_R_SQUARED 0.0613, read-out: LUCIFERASE INFECTION ASSAY - IC50): < 4.97"
CNC(=O)c1ccc(CN(Cc2ccco2)C(=O)Cc2ccc(-c3ccccc3)cc2)cc1,> 10,"pIC50 (FFLUC_HILL_SLOPE 7.09, FFLUC_R_SQUARED 0.0104, PBLUC_HILL_SLOPE 1.93, PBLUC_R_SQUARED 0.808, read-out: LUCIFERASE INFECTION ASSAY - IC50): 5.43"
O=C(Nc1nc2ccccn2c1C(=O)NC1CCCC1)c1ccc(F)cc1,> 9.01,pIC50 [1]: < 5.05
Cc1nn(-c2ccccc2Cl)c(Cl)c1/C=N/Nc1ccccc1Cl,7.32,"pIC50 (PBLUC_HILL_SLOPE 3.24, PBLUC_R_SQUARED 0.794, read-out: LUCIFERASE INFECTION ASSAY - IC50): 5.43"
COc1ccccc1NC(=O)/C=c1\s/c(=C\c2cnn(-c3ccccc3)c2)c(=O)n1C,0.632,"pIC50 (HEPG2TOX_HILL_SLOPE 1.6, HEPG2TOX_R_SQUARED 0.888, PBLUC_HILL_SLOPE 1.61, PBLUC_R_SQUARED 0.941, read-out: LUCIFERASE INFECTION ASSAY - IC50): 6.79"
Cc1onc(-c2ccc(Cl)cc2)c1-c1ccnc(SCC(=O)c2ccc([N+](=O)[O-])cc2)n1,> 7.07,"pIC50 (FFLUC_HILL_SLOPE 14.7, FFLUC_R_SQUARED 0.642, read-out: LUCIFERASE INFECTION ASSAY - IC50): < 5.15"
O=C(COC(=O)c1cc(-c2ccccc2)c(N2CCOCC2)s1)NCc1cccs1,7.35,"pIC50 (HEPG2TOX_HILL_SLOPE 2.63, HEPG2TOX_R_SQUARED 0.904, PBLUC_HILL_SLOPE 1.69, PBLUC_R_SQUARED 0.47, read-out: LUCIFERASE INFECTION ASSAY - IC50): 5.70"
CCN1C(=O)N(Cc2cccc(OC)c2)C(=O)C12CCN(Cc1cc3ccccc3s1)CC2,> 7.12,"pIC50 (HEPG2TOX_HILL_SLOPE 3.09, HEPG2TOX_R_SQUARED 0.881, PBLUC_HILL_SLOPE 9.24, PBLUC_R_SQUARED 0.267, read-out: LUCIFERASE INFECTION ASSAY - IC50): 5.22"

Structure (SMILES),IC90 [µM],further results
CC(C)=CCn1c2ccc(NC(=O)OCCF)cc2c(=O)n1C,> 10.3,pIC50 [1]: < 4.99
CCCNC(=O)C1(C)CCN(CCCC(=O)c2ccc(C)c(C)c2)C1 (stereo unspecified),> 9.58,pIC50 [1]: < 5.02
CN(C)S(=O)(=O)c1cccc(C(=O)Nc2nc3ccc(Oc4ccccc4)cc3s2)c1,> 10,"pIC50 (HEPG2TOX_HILL_SLOPE 15.9, HEPG2TOX_R_SQUARED 0.649, PBLUC_HILL_SLOPE 3.03, PBLUC_R_SQUARED 0.302, read-out: LUCIFERASE INFECTION ASSAY - IC50): 5.23"
O=C(Nc1ccccc1)c1ccc(CN2CCC(O)CC2)cc1,> 10,"pIC50 (FFLUC_HILL_SLOPE 0.964, FFLUC_R_SQUARED 0.857, PBLUC_HILL_SLOPE 0.791, PBLUC_R_SQUARED 0.696, read-out: LUCIFERASE INFECTION ASSAY - IC50): 5.98"
Cc1nn(C)c(NC(=O)c2ccc(Cl)cc2)c1Br,> 10,"pIC50 (PBLUC_HILL_SLOPE 41, PBLUC_R_SQUARED 0.305, read-out: LUCIFERASE INFECTION ASSAY - IC50): < 5.00"
O=c1ccn(-c2ccc(Cl)cc2)nc1-c1ccnc(-c2ccccc2)n1,> 9.15,pIC50 [1]: < 5.04
Cc1cccn2cc(CN3CCN(S(=O)(=O)c4ccc(Cl)c(C(F)(F)F)c4)CC3)nc12,> 10,pIC50 [1]: < 5.00
Cc1c(-c2ccccc2)oc2c(C(=O)NCc3ccc(Cn4cccn4)cc3)cccc2c1=O,> 10,"pIC50 (FFLUC_HILL_SLOPE 3.81, FFLUC_R_SQUARED 0.0734, PBLUC_HILL_SLOPE 3.95, PBLUC_R_SQUARED 0.349, read-out: LUCIFERASE INFECTION ASSAY - IC50): 5.11"
CC(C)c1cccc(-c2ccc3nnc(-c4ccc(OCCCN(C)C)cc4)n3c2)c1,> 10,pIC50 [1]: < 5.00
COc1ccc(S(=O)(=O)Nc2ccc3c(c2)CS(=O)(=O)C3)cc1,> 9.34,"pIC50 (FFLUC_HILL_SLOPE 6.24, FFLUC_R_SQUARED 0.631, read-out: LUCIFERASE INFECTION ASSAY - IC50): < 5.03"
COc1ccc(-c2nc3c(c(=O)[nH]c(=O)n3Cc3ccccc3)n2Cc2ccccc2)cc1,> 10,"pIC50 (HEPG2TOX_HILL_SLOPE 7.19, HEPG2TOX_R_SQUARED 0.823, PBLUC_HILL_SLOPE 10.3, PBLUC_R_SQUARED 0.181, read-out: LUCIFERASE INFECTION ASSAY - IC50): 5.05"
CCOC(=O)c1c(C)noc1/C(C)=N/OC(=O)Nc1cccc(C(F)(F)F)c1,3.98,"pIC50 (FFLUC_HILL_SLOPE 1.36, FFLUC_R_SQUARED 0.14, PBLUC_HILL_SLOPE 8.59, PBLUC_R_SQUARED 0.59, read-out: LUCIFERASE INFECTION ASSAY - IC50): 5.51"
Oc1cccc2c(NC(S)=Nc3ccc(OC(F)F)cc3)cccc12,5.27,"pIC50 (HEPG2TOX_HILL_SLOPE 12, HEPG2TOX_R_SQUARED 0.725, PBLUC_HILL_SLOPE 8.83, PBLUC_R_SQUARED 0.0853, read-out: LUCIFERASE INFECTION ASSAY - IC50): 5.39"
COc1ccc(-c2cnc3cnc(-c4ccccc4)cn23)cc1,3.33,"pIC50 (HEPG2TOX_HILL_SLOPE 1.56, HEPG2TOX_R_SQUARED 0.972, PBLUC_HILL_SLOPE 1.73, PBLUC_R_SQUARED 0.792, read-out: LUCIFERASE INFECTION ASSAY - IC50): 6.03"
CCCCCC(/C=N/NC(=O)c1ccccc1O)=C\c1ccccc1,> 10,pIC50 [1]: < 5.00
COc1ccc(-c2cnc3cnc(-c4ccc(N5CCN(C)CC5)cc4)cn23)cn1,> 8.24,pIC50 [1]: < 5.08
C=CCn1c(SC(C(=O)c2c[nH]c3ccccc23)c2ccccc2)nc2sc(C)c(C)c2c1=O (stereo unspecified),3.74,"pIC50 (FFLUC_HILL_SLOPE 2.34, FFLUC_R_SQUARED 0.404, HEPG2TOX_HILL_SLOPE 0.632, HEPG2TOX_R_SQUARED 0.765, PBLUC_HILL_SLOPE 19.2, PBLUC_R_SQUARED 0.592, read-out: LUCIFERASE INFECTION ASSAY - IC50): 5.48"
CC(C)(C)c1cc2nc(C(F)(F)F)cc(SCCOC(=O)Nc3cccc(Cl)c3)n2n1,> 6.98,"pIC50 (HEPG2TOX_HILL_SLOPE 1.03, HEPG2TOX_R_SQUARED 0.0682, read-out: LUCIFERASE INFECTION ASSAY - IC50): < 5.16"
C=S(=O)(N/C=C1/C(=O)c2ccccc2N(C)S1(=O)=O)c1ccccc1 (stereo unspecified),> 8.77,pIC50 [1]: < 5.06
